In patent US20250099455A1, “TREATMENT FOR CONGESTIVE HEART FAILURE” (FibroGen, Inc., priority 2022, published 2025):
“Also recorded” adds a separate entry of the source.

Tests used:
global ischemia = test: Acute cardioprotection: left ventricular function and coronary flow after global ischemia
[1] = test system: acute myocardial ischemia; test: Acute cardioprotection: infarct size post-acute myocardial ischemia; type: in vivo
[2] = test system: myocardial ischemia-induced heart failure (HFrEF); test: Rat model of ischemic HFrEF, Formula I and empagliflozin alone and in combination; type: in vivo
Method: • Male Sprague Dawley rats • Ligation of left coronary artery for 30 minutes followed by reperfusion • Post-ligation recovery for 28 days • Cardiac function 28 days after ischemia-reperfusion using a Millar pressure-volume catheter inserted in the left ventricle via the carotid artery • Record pressure-volume loops over several cardiac cycles and derived cardiac function parameters A) Rat Model of Ischemic Heart Failure with Reduced Ejection Fraction (HFrEF)

PHD2 = PHD2 (Homo sapiens (Human), UniProt Q9GZT9); test: HIF-PH assay (14CO2 capture), PHD2; type: biochemical
Description: The selectivity profile for the compound of Formula I can be determined using, for example, any assay familiar and commonly accessible to those skilled in the art, e.g., the following HIF-PH assay. Ketoglutaric acid α-[1-^14C]-sodium salt, alpha-ketoglutaric acid sodium salt, and HPLC purified peptide may be obtained from commercial sources, e.g., Perkin-Elmer (Wellesley MA), Sigma-Aldrich, and SynPep Corp. (Dublin CA), respectively. Peptides for use in the assay may be fragments of HIFα as described above or as disclosed in International Publication WO 2005/118836, incorporated by reference herein. HIF-PH, e.g., PHD1 (EGLN2) or PHD2 (EGLN1), can be expressed in, e.g., insect Hi5 cells, and partially purified, e.g., through a SP ion exchange chromatography column. Enzyme activity is determined by capturing ^14CO2 using an assay described by Kivirikko and Myllyla (1982, Methods Enzymol. 82:245-304). […] The peptide-dependent percent turnover is calculated by subtracting percent turnover in the absence of peptide from percent turnover in the presence of substrate peptide. Percent inhibition and IC50 are calculated using peptide-dependent percent turnover at given inhibitor concentrations. […] IC50 of test compound for PHD1 and for PHD2 and/or PHD3 can be readily determined using the above method, and used to assess the selectivity of the compound for inhibition of PHD1.

Sequence of PHD2 (Q9GZT9 whole entry, species assumed, the tested form may be a part): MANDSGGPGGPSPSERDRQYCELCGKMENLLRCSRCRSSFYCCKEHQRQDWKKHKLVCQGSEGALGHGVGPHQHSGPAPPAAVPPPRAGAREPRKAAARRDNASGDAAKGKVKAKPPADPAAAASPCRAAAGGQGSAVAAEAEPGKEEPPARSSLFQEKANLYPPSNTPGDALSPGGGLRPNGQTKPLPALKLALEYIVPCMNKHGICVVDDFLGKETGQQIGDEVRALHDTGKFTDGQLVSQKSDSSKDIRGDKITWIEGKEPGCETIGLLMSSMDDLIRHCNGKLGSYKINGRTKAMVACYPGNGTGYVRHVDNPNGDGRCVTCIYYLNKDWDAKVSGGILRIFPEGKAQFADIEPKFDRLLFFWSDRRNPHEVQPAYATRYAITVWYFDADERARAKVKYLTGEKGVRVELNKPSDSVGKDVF

IC50 (PHD2; Table 1): 20.4 µM | IC50 (PHD2; additional experiment, Table 1A): 16.9 µM
SMILES: CC(C)(CC(=O)O)NC(=O)c1nc(C#N)c2cc(Oc3ccccc3)ccc2c1O [Formula I, 3-[(1-cyano-4-hydroxy-7-phenoxy-isoquinoline-3-carbonyl)-amino]-3-methyl-butyric acid]
coronary flow (global ischemia): improved | left ventricular function (global ischemia): improved | left ventricular function (LVDP) (global ischemia): improved | left ventricular function (LVEP) (global ischemia): improved | infarct size [1]: reduced; also recorded: dose-dependent reducing affect | improvement in ejection fraction [2]: ~30% | improvement in end systolic volume [2]: ~30%
